Measured values reported in US12077503B2, “Substituted cyclic amides and their use as herbicides” (FMC CORPORATION, priority 2015, dated 2024).

Columns and labels:
Assay in all cases: Test C preemergence
Type in all cases: in vivo
[1] = tested on: lambsquarters (Chenopodium album); conditions: for Plant response rating, Lambsquarters: scale 0 to 100, 0 no effect, 100 complete control
Procedure, shortened: (§1)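 Herbicidal effect, applied preemergence to sown seeds or postemergence to 1- to 4-leaf plants, was scored visually 13 to 15 d after application, 0 to 100 versus controls.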

[2] = tested on: oilseed rape (Brassica napus); conditions: for Plant response rating, Oilseed Rape: scale 0 to 100, 0 no effect, 100 complete control
Procedure, shortened: as §1

[3] = tested on: waterhemp (common waterhemp, Amaranthus rudis); conditions: for Plant response rating, Waterhemp: scale 0 to 100, 0 no effect, 100 complete control
Procedure, shortened: as §1

[4] = tested on: nutsedge, yellow (yellow nutsedge, Cyperus esculentus); conditions: for Plant response rating, Nutsedge, Yellow: scale 0 to 100, 0 no effect, 100 complete control
Procedure, shortened: as §1

[5] = tested on: foxtail, giant (giant foxtail, Setaria faberii); conditions: for Plant response rating, Foxtail, Giant: scale 0 to 100, 0 no effect, 100 complete control
Procedure, shortened: as §1

[6] = tested on: Galium (catchweed bedstraw, Galium aparine); conditions: for Plant response rating, Galium: scale 0 to 100, 0 no effect, 100 complete control
Procedure, shortened: as §1

corn (Zea mays) = conditions: for Plant response rating, Corn: scale 0 to 100, 0 no effect, 100 complete control
Procedure, shortened: as §1

soybean (Glycine max) = conditions: scale 0 to 100, 0 no effect, 100 complete control
Procedure, shortened: as §1

[7] = tested on: crabgrass, large (large crabgrass, Digitaria sanguinalis); conditions: for Plant response rating, Crabgrass, Large: scale 0 to 100, 0 no effect, 100 complete control
Procedure, shortened: as §1

[8] = tested on: velvetleaf (Abutilon theophrasti); conditions: for Plant response rating, Velvetleaf: scale 0 to 100, 0 no effect, 100 complete control
Procedure, shortened: as §1

[9] = tested on: ragweed (common ragweed, Ambrosia elatior); conditions: for Plant response rating, Ragweed: scale 0 to 100, 0 no effect, 100 complete control
Procedure, shortened: as §1

[10] = tested on: wheat (winter wheat, Triticum aestivum); conditions: for Plant response rating, Wheat: scale 0 to 100, 0 no effect, 100 complete control
Procedure, shortened: as §1

[11] = tested on: pigweed (Amaranthus retroflexus); conditions: for Plant response rating, Pigweed: scale 0 to 100, 0 no effect, 100 complete control
Procedure, shortened: as §1

[12] = tested on: morningglory (Ipomoea coccinea); conditions: for Plant response rating, Morningglory: scale 0 to 100, 0 no effect, 100 complete control
Procedure, shortened: as §1

[13] = tested on: blackgrass (Alopecurus myosuroides); conditions: for Plant response rating, Blackgrass: scale 0 to 100, 0 no effect, 100 complete control
Procedure, shortened: as §1

[14] = tested on: barnyardgrass (Echinochloa crus-galli); conditions: for Plant response rating, Barnyardgrass: scale 0 to 100, 0 no effect, 100 complete control
Procedure, shortened: as §1

[15] = tested on: ryegrass, Italian (Italian ryegrass, Lolium multiflorum); conditions: for Plant response rating, Ryegrass, Italian: scale 0 to 100, 0 no effect, 100 complete control
Procedure, shortened: as §1

[16] = 31 g ai/ha, 0 is no effect, 100 is complete control

Cc1cccc(C2CN(C)C(=O)C2C(=O)Nc2cccc(F)c2F)c1 (stereo not shown) [Compound 667]
10: Plant response rating, Waterhemp ([3]; 62 g ai/ha) | Plant response rating (scale of 0 to 100), Galium [6, 16] | Plant response rating, Soybean (soybean (Glycine max); 62 g ai/ha) | Plant response rating, Wheat ([10]; 62 g ai/ha) | Plant response rating, Morningglory ([12]; 250 g ai/ha)
5: Plant response rating (scale of 0 to 100), Velvetleaf [8, 16]
70: Plant response rating, Lambsquarters ([1]; 62 g ai/ha) | Plant response rating, Corn (corn (Zea mays); 62 g ai/ha) | Plant response rating, Ragweed ([9]; 125 g ai/ha) | Plant response rating, Pigweed ([11]; 250 g ai/ha) | Plant response rating, Ryegrass, Italian ([15]; 62 g ai/ha)
50: Plant response rating (scale of 0 to 100), Lambsquarters [1, 16] | Plant response rating, Velvetleaf ([8]; 125 g ai/ha) | Plant response rating, Wheat ([10]; 250 g ai/ha) | Plant response rating, Pigweed ([11]; 62 g ai/ha) | Plant response rating, Pigweed ([11]; 125 g ai/ha) | Plant response rating (scale of 0 to 100), Blackgrass [13, 16]
98: Plant response rating, Foxtail, Giant ([5]; 62 g ai/ha) | Plant response rating, Foxtail, Giant ([5]; 125 g ai/ha) | Plant response rating, Galium ([6]; 125 g ai/ha) | Plant response rating, Crabgrass, Large ([7]; 125 g ai/ha) | Plant response rating, Crabgrass, Large ([7]; 250 g ai/ha) | Plant response rating, Barnyardgrass ([14]; 125 g ai/ha) | Plant response rating, Ryegrass, Italian ([15]; 250 g ai/ha)
55: Plant response rating (scale of 0 to 100), Corn (corn (Zea mays); [16]) | Plant response rating, Wheat ([10]; 125 g ai/ha)
30: Plant response rating, Velvetleaf ([8]; 62 g ai/ha)
35: Plant response rating (scale of 0 to 100), Oilseed Rape [2, 16]
85: Plant response rating, Oilseed Rape ([2]; 62 g ai/ha) | Plant response rating, Oilseed Rape ([2]; 125 g ai/ha) | Plant response rating, Corn (corn (Zea mays); 250 g ai/ha) | Plant response rating, Blackgrass ([13]; 125 g ai/ha)
0: Plant response rating (scale of 0 to 100), Waterhemp [3, 16] | Plant response rating (scale of 0 to 100), Nutsedge, Yellow [4, 16] | Plant response rating, Nutsedge, Yellow ([4]; 62 g ai/ha) | Plant response rating, Nutsedge, Yellow ([4]; 125 g ai/ha) | Plant response rating, Soybean (soybean (Glycine max); 125 g ai/ha) | Plant response rating, Soybean (soybean (Glycine max); 250 g ai/ha) | Plant response rating (scale of 0 to 100), Wheat [10, 16] | Plant response rating (scale of 0 to 100), Morningglory [12, 16] | Plant response rating, Morningglory ([12]; 62 g ai/ha) | Plant response rating, Morningglory ([12]; 125 g ai/ha)
40: Plant response rating, Velvetleaf ([8]; 250 g ai/ha) | Plant response rating (scale of 0 to 100), Pigweed [11, 16]
25: Plant response rating, Nutsedge, Yellow ([4]; 250 g ai/ha) | Plant response rating (scale of 0 to 100), Ragweed [9, 16]
80: Plant response rating, Corn (corn (Zea mays); 125 g ai/ha) | Plant response rating, Ragweed ([9]; 250 g ai/ha) | Plant response rating, Blackgrass ([13]; 62 g ai/ha)
60: Plant response rating, Waterhemp ([3]; 125 g ai/ha) | Plant response rating (scale of 0 to 100), Ryegrass, Italian [15, 16]
100: Plant response rating, Lambsquarters ([1]; 250 g ai/ha) | Plant response rating, Foxtail, Giant ([5]; 250 g ai/ha) | Plant response rating, Galium ([6]; 62 g ai/ha) | Plant response rating, Ragweed ([9]; 62 g ai/ha) | Plant response rating, Barnyardgrass ([14]; 250 g ai/ha)
95: Plant response rating (scale of 0 to 100), Foxtail, Giant [5, 16] | Plant response rating (scale of 0 to 100), Crabgrass, Large [7, 16] | Plant response rating, Crabgrass, Large ([7]; 62 g ai/ha) | Plant response rating, Blackgrass ([13]; 250 g ai/ha) | Plant response rating (scale of 0 to 100), Barnyardgrass [14, 16] | Plant response rating, Barnyardgrass ([14]; 62 g ai/ha) | Plant response rating, Ryegrass, Italian ([15]; 125 g ai/ha)
90: Plant response rating, Lambsquarters ([1]; 125 g ai/ha) | Plant response rating, Oilseed Rape ([2]; 250 g ai/ha) | Plant response rating, Galium ([6]; 250 g ai/ha)
75: Plant response rating, Waterhemp ([3]; 250 g ai/ha)
